ChEMBL document CHEMBL1833895, “Synthesis and biological activity of desmethoxy analogues of coruscanone A” (Bioorg Med Chem Lett, 2011)

Experiments:
Candida tropicalis [1] = experiment: Antifungal activity against Candida tropicalis 156 after 48 hrs by microdilution method; assay type: functional; settings: Candida tropicalis, 156, 48 h
Trichosporon asahii [2] = experiment: Antifungal activity against Trichosporon asahii 1188 after 48 hrs by microdilution method; assay type: functional; settings: Trichosporon asahii, 1188, 48 h
Clavispora lusitaniae [3] = experiment: Antifungal activity against Candida lusitaniae 2446/I after 24 hrs by microdilution method; assay type: functional
Candida parapsilosis [4] = experiment: Antifungal activity against Candida parapsilosis ATCC 22019 after 48 hrs by microdilution method; assay type: functional; settings: Lodderomyces parapsilosis, ATCC 22019, 48 h
Pichia kudriavzevii [5] = experiment: Antifungal activity against Candida krusei E28 after 24 hrs by microdilution method; assay type: functional; settings: E28, 24 h
Pichia kudriavzevii [6] = experiment: Antifungal activity against Candida krusei ATCC 6258 after 24 hrs by microdilution method; assay type: functional; settings: ATCC 6258, 24 h
L1210 = experiment: Cytostatic activity against mouse L1210 cells at 10 umol/L after 72 hrs by XTT assay; assay type: ADME, cell-based; settings: l1210, 72 h, 10 µM
Candida albicans [7] = experiment: Antifungal activity against Candida albicans ATCC 44859 after 24 hrs by microdilution method; assay type: functional; settings: ATCC 44859, 24 h
Pichia kudriavzevii [8] = experiment: Antifungal activity against Candida krusei ATCC 6258 after 48 hrs by microdilution method; assay type: functional; settings: ATCC 6258, 48 h
Clavispora lusitaniae [9] = experiment: Antifungal activity against Candida lusitaniae 2446/I after 48 hrs by microdilution method; assay type: functional
Pichia kudriavzevii [10] = experiment: Antifungal activity against Candida krusei E28 after 48 hrs by microdilution method; assay type: functional; settings: E28, 48 h
HL-60 = experiment: Cytostatic activity against human HL60 cells at 10 umol/L after 72 hrs by XTT assay; assay type: ADME, cell-based; settings: hl-60, 72 h, 10 µM
Candida albicans [11] = experiment: Antifungal activity against Candida albicans ATCC 44859 after 48 hrs by microdilution method; assay type: functional; settings: ATCC 44859, 48 h
Trichosporon asahii [12] = experiment: Antifungal activity against Trichosporon asahii 1188 after 24 hrs by microdilution method; assay type: functional; settings: Trichosporon asahii, 1188, 24 h
Candida albicans [13] = experiment: Antifungal activity against Candida albicans ATCC 90028 after 24 hrs by microdilution method; assay type: functional; settings: ATCC 90028, 24 h
Candida tropicalis [14] = experiment: Antifungal activity against Candida tropicalis 156 after 24 hrs by microdilution method; assay type: functional; settings: Candida tropicalis, 156, 24 h
Candida albicans [15] = experiment: Antifungal activity against Candida albicans ATCC 90028 after 48 hrs by microdilution method; assay type: functional; settings: ATCC 90028, 48 h
HT-29 = experiment: Cytostatic activity against human HT-29 cells at 10 umol/L after 72 hrs by XTT assay; assay type: ADME, cell-based; settings: ht-29, 72 h, 10 µM
[16] = Cytostatic activity against human COLO201 cells at 10 umol/L after 72 hrs by XTT assay; assay type: ADME, cell-based; settings: colo 201, 72 h, 10 µM
[17] = system: Trichophyton mentagrophytes; experiment: Antifungal activity against Trichophyton mentagrophytes 445 after 72 hrs by microdilution method; assay type: functional, organism-based; settings: Trichophyton mentagrophytes, 445, 72 h
Nakaseomyces glabratus [18] = experiment: Antifungal activity against Candida glabrata 20/I after 24 hrs by microdilution method; assay type: functional
Aspergillus fumigatus [19] = experiment: Antifungal activity against Aspergillus fumigatus 231 after 24 hrs by microdilution method; assay type: functional, organism-based; settings: Aspergillus fumigatus, 231, 24 h
Candida parapsilosis [20] = experiment: Antifungal activity against Candida parapsilosis ATCC 22019 after 24 hrs by microdilution method; assay type: functional; settings: Lodderomyces parapsilosis, ATCC 22019, 24 h
CCRF-CEM = experiment: Cytostatic activity against human CCRF-CEM cells after 72 hrs by XTT assay; assay type: ADME, cell-based
Nakaseomyces glabratus [21] = experiment: Antifungal activity against Candida glabrata 20/I after 48 hrs by microdilution method; assay type: functional
Aspergillus fumigatus [22] = experiment: Antifungal activity against Aspergillus fumigatus 231 after 48 hrs by microdilution method; assay type: functional, organism-based; settings: Aspergillus fumigatus, 231, 48 h
[23] = system: Trichophyton mentagrophytes; experiment: Antifungal activity against Trichophyton mentagrophytes 445 after 120 hrs by microdilution method; assay type: functional, organism-based; settings: Trichophyton mentagrophytes, 445, 120 h
Lichtheimia corymbifera [24] = experiment: Antifungal activity against Absidia corymbifera 272 after 48 hrs by microdilution method; assay type: functional, organism-based; settings: Lichtheimia corymbifera, 272, 48 h
[25] = Cytostatic activity against human HeLaS3 cells at 10 umol/L after 48 hrs by XTT assay; assay type: ADME, cell-based; settings: hela s3, 48 h, 10 µM
Lichtheimia corymbifera [26] = experiment: Antifungal activity against Absidia corymbifera 272 after 24 hrs by microdilution method; assay type: functional, organism-based; settings: Lichtheimia corymbifera, 272, 24 h

Compound | IC80 (Candida tropicalis [1]) [µM] | IC80 (Trichosporon asahii [2]) [µM] | IC80 (Clavispora lusitaniae [3]) [µM] | IC80 (Candida parapsilosis [4]) [µM] | IC80 (Pichia kudriavzevii [5]) [µM] | IC80 (Pichia kudriavzevii [6]) [µM] | IC80 (Candida albicans [7]) [µM] | IC80 (Pichia kudriavzevii [8]) [µM] | IC80 (Clavispora lusitaniae [9]) [µM] | IC80 (Pichia kudriavzevii [10]) [µM] | IC80 (Candida albicans [11]) [µM] | IC80 (Trichosporon asahii [12]) [µM] | IC80 (Candida albicans [13]) [µM] | IC80 (Candida tropicalis [14]) [µM] | IC80 (Candida albicans [15]) [µM] | IC80 [17] [µM] | IC80 (Nakaseomyces glabratus [18]) [µM] | IC80 (Aspergillus fumigatus [19]) [µM] | IC80 (Candida parapsilosis [20]) [µM] | IC80 (Nakaseomyces glabratus [21]) [µM] | further results
O=C1C=CC(=O)C1=Cc1ccccc1 | 3.9 | 3.9 | 7.81 | 3.9 | 3.9 | 3.9 | 1.95 | 3.9 | 15.6 | 7.81 | 1.95 | 1.95 | 3.9 | 3.9 | 7.81 | 1.95 | 7.81 | 15.6 | 3.9 | 7.81 | Activity (L1210): Non-toxic; Activity (HL-60): Non-toxic; Activity (HT-29): Non-toxic; Activity [16]: Non-toxic; IC50 (CCRF-CEM): 2.6 µM; IC80 (Aspergillus fumigatus [22]): 31.2 µM; IC50 [23]: 3.9 µM; IC80 (Lichtheimia corymbifera [24]): 250 µM; Activity [25]: Non-toxic; IC80 (Lichtheimia corymbifera [26]): 250 µM
O=C1C=CC(=O)C1=Cc1cccs1 | 15.6 | 31.2 | 15.6 | 15.6 | 7.81 | 7.81 | 7.81 | 15.6 | 15.6 | 7.81 | 7.81 | 15.6 | 15.6 | 15.6 | 15.6 | 15.6 | 7.81 | 15.6 | 15.6 | 15.6 | Activity (L1210): Non-toxic; Activity (HL-60): Non-toxic; Activity (HT-29): Non-toxic; Activity [16]: Non-toxic; IC50 (CCRF-CEM): 4.2 µM; IC80 (Aspergillus fumigatus [22]): 15.6 µM; IC50 [23]: 15.6 µM; IC80 (Lichtheimia corymbifera [24]): > 500 µM; Activity [25]: Non-toxic; IC80 (Lichtheimia corymbifera [26]): 500 µM
COc1ccc(C=C2C(=O)C=CC2=O)cc1 | 7.81 | 31.2 | 7.81 | 15.6 | 3.9 | 3.9 | 3.9 | 3.9 | 31.2 | 7.81 | 7.81 | 7.81 | 7.81 | 7.81 | 7.81 | 3.9 | 7.81 | 15.6 | 7.81 | 7.81 | Activity (L1210): Non-toxic; Activity (HL-60): Non-toxic; Activity (HT-29): Non-toxic; Activity [16]: Non-toxic; IC50 (CCRF-CEM): 3.8 µM; IC80 (Aspergillus fumigatus [22]): 31.2 µM; IC50 [23]: 7.81 µM; IC80 (Lichtheimia corymbifera [24]): > 250 µM; Activity [25]: Non-toxic; IC80 (Lichtheimia corymbifera [26]): > 250 µM
O=C1C=CC(=O)C1=Cc1ccc(F)cc1 | 31.2 | 62.5 | 15.6 | 31.2 | 15.6 | 15.6 | 7.81 | 31.2 | 31.2 | 31.2 | 15.6 | 31.2 | 15.6 | 15.6 | 31.2 | 15.6 | 31.2 | 31.2 | 15.6 | 31.2 | Activity (L1210): Non-toxic; Activity (HL-60): Non-toxic; Activity (HT-29): Non-toxic; Activity [16]: Non-toxic; IC50 (CCRF-CEM): 1.6 µM; IC80 (Aspergillus fumigatus [22]): 62.5 µM; IC50 [23]: 15.6 µM; IC80 (Lichtheimia corymbifera [24]): > 125 µM; Activity [25]: Non-toxic; IC80 (Lichtheimia corymbifera [26]): > 125 µM
O=C1C=CC(=O)C1=Cc1cccc(Br)c1 | 62.5 | 125 | 31.2 | 62.5 | 31.2 | 15.6 | 15.6 | 31.2 | 31.2 | 31.2 | 31.2 | 32.5 | 15.6 | 31.2 | 31.2 | 15.6 | 31.2 | 125 | 31.2 | 62.5 | Activity (L1210): Non-toxic; Activity (HL-60): Non-toxic; Activity (HT-29): Non-toxic; Activity [16]: Non-toxic; IC50 (CCRF-CEM): 7.5 µM; IC80 (Aspergillus fumigatus [22]): 125 µM; IC50 [23]: 15.6 µM; IC80 (Lichtheimia corymbifera [24]): > 125 µM; Activity [25]: Non-toxic; IC80 (Lichtheimia corymbifera [26]): > 125 µM
OC(Cn1cncn1)(Cn1cncn1)c1ccc(F)cc1F [FLUCONAZOLE] | 5 | 9 | 3.3 | 13 | > 50 | > 50 | 1 | > 50 | 3.3 | > 50 | 2 | 4 | 0.8 | 3 | 3.3 | 17 | 22 | > 50 | 6.5 | > 50 | IC80 (Aspergillus fumigatus [22]): > 50 µM; IC50 [23]: 26 µM; IC80 (Lichtheimia corymbifera [24]): > 50 µM; IC80 (Lichtheimia corymbifera [26]): > 50 µM
Cc1ccc(C=C2C(=O)C=CC2=O)cc1 | 15.6 | 62.5 | 15.6 | 15.6 | 15.6 | 7.81 | 3.9 | 15.6 | 15.6 | 15.6 | 7.81 | 15.6 | 3.9 | 7.81 | 15.6 | 125 | 15.6 | 31.2 | 15.6 | 15.6 | Activity (L1210): Non-toxic; Activity (HL-60): Non-toxic; Activity (HT-29): Non-toxic; Activity [16]: Non-toxic; IC50 (CCRF-CEM): 2.7 µM; IC80 (Aspergillus fumigatus [22]): 125 µM; IC50 [23]: > 250 µM; IC80 (Lichtheimia corymbifera [24]): > 250 µM; Activity [25]: Non-toxic; IC80 (Lichtheimia corymbifera [26]): > 250 µM
O=C1C=CC(=O)C1=C/C=C/c1ccccc1 | 15.6 | 15.6 | 7.81 | 7.81 | 15.6 | 3.9 | 1.95 | 7.81 | 15.6 | 15.6 | 1.95 | 7.81 | 15.6 | 7.81 | 15.6 | 7.81 | 15.6 | 31.2 | 3.9 | 31.2 | Activity (L1210): Non-toxic; Activity (HL-60): Non-toxic; Activity (HT-29): Non-toxic; Activity [16]: Non-toxic; IC50 (CCRF-CEM): 4.4 µM; IC80 (Aspergillus fumigatus [22]): 31.2 µM; IC50 [23]: 62.5 µM; IC80 (Lichtheimia corymbifera [24]): > 125 µM; Activity [25]: Non-toxic; IC80 (Lichtheimia corymbifera [26]): > 125 µM
O=C1C=CC(=O)C1=Cc1ccc(Cl)cc1 | 31.2 | 62.5 | 31.2 | 31.2 | 31.2 | 31.2 | 7.81 | 31.2 | 31.2 | 62.5 | 31.2 | 31.2 | 31.2 | 31.2 | 31.2 | 125 | 62.5 | 62.5 | 31.2 | 62.5 | Activity (L1210): Non-toxic; Activity (HL-60): Non-toxic; Activity (HT-29): Non-toxic; Activity [16]: Non-toxic; IC50 (CCRF-CEM): 6.1 µM; IC80 (Aspergillus fumigatus [22]): 62.5 µM; IC50 [23]: > 125 µM; IC80 (Lichtheimia corymbifera [24]): > 125 µM; Activity [25]: Non-toxic; IC80 (Lichtheimia corymbifera [26]): > 125 µM
